The source of these data is US8846948B2, “Compounds” (Boehringer Ingelheim International GmbH, priority 2011, dated 2014).

The test deals with T1, human recombinant mGluR5 (Homo sapiens, UniProt P41594).
T1 construct: expressed in transfected cells; host or cells: HEK 293 cell line, cultured with tetracycline, hygromycin and geneticin
T1 sequence (P41594 21-1212): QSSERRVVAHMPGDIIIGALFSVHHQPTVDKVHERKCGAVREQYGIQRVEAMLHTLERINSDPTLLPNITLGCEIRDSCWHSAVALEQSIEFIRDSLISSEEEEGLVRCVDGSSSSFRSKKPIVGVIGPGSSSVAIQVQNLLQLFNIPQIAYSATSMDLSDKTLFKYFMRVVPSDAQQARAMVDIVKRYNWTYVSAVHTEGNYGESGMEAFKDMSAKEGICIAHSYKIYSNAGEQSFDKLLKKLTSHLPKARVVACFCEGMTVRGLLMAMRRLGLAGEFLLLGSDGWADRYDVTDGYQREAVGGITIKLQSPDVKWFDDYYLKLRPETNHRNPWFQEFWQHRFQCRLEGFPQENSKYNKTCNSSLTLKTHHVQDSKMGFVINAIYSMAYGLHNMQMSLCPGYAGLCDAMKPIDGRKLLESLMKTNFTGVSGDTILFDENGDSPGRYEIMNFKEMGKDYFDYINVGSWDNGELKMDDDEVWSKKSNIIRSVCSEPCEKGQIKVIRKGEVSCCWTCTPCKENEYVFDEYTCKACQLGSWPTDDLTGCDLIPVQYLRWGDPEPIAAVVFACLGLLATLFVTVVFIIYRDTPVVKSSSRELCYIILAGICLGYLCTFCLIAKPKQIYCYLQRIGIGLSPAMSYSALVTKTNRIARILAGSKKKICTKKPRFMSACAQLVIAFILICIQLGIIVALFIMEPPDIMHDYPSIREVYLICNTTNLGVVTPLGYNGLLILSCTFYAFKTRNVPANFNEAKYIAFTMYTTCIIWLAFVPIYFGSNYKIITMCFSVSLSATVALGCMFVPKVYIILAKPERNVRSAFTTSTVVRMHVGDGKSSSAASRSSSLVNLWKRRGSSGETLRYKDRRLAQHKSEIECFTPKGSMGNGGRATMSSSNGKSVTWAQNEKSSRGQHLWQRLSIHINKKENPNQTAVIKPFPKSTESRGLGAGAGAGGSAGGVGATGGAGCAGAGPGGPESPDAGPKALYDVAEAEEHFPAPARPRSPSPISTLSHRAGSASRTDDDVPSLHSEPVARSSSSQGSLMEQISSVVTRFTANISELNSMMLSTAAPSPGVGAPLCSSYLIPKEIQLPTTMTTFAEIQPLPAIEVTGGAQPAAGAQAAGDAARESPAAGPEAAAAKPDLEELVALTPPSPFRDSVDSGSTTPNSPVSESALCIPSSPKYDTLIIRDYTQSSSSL
Description: Positive modulation of mGluR5, calcium based FLIPR assay. The conditions noted are these: EC50 of the modulation; HEK 293 cell line expressing human recombinant mGluR5; peak height of Ca release fluorescence signal after glutamate at approximately 5% basal stimulation. Here is the method:
The positive modulation of mGluR5 is measured in a HEK 293 cell line expressing human recombinant mGluR5 and is detected with calcium based FLIPR assay. The cells are cultured with DMEM supplemented with 10% FCS, 2 μg/mL tetracycline, 100 μg/mL hygromycin and 500 μg/mL gneticin. The cell culture media is exchanged for tetracycline-free cell culture media 3-7 days before the assay. One day before the assay the cell culture medium is exchanged to DMEM without glutamine and phenol red and supplemented with 10% FCS, 100 μg/mL hygromycin and 500 μg/mL geneticin. On the assay day, the medium of the subconfluent cultures is removed and the cells are detached by addition of 2.5 ml EDTA (0.02%) per 175 cm2 culture flask for 1 minute. The cells are resuspend in Ringer solution (140 mM NaCl, 5 mM KCl, 2.5 mM CaCl2, 1.5 mM MgCl2, 5 mM Glucose, 10 mM Hepes; adjusted to pH 7.4 with NaOH), pooled and Ringer solution added to adjust the volume to 50 mL. The cell suspension is centrifuged for […] at 1500 U/min (425 g). The supernatant is removed and the cells washed a second time with 50 ml fresh Ringer solution and centrifuged again as before. The supernatant is again removed and the pellet resuspended in Ringer solution to 1,000,000 cells/ml (1×10^6 cells/mL). The cells are plated onto BD BioCoat Poly-D-Lysine 384 well plates (20.000 cells/well; 20 μl/well). The lid covered plates are then incubated until use at 37° C./10% CO2. For dye loading, 20 μl of Calcium-4 assay kit solution (prepared according to the manufacturer's description in Ringer solution) are added to the cells and the plates are incubated for […] 37° C. and then […] at room temperature.
Controls, Compound dilution and assay execution:
Each assay plate contained wells with “high” and “low” controls:
Low controls 1% DMSO/ringer solution+basal glutamate activation (defined as 100% CTL).
High controls 10 μM CDPPB+basal glutamate activation (defined as 200% CTL).
Test compounds are dissolved and diluted in DMSO to 100-fold the desired concentrations. In a second step, the compounds are diluted in Ringer solution such that the compounds are 4-fold more concentrated than the desired final assay concentration. The final DMSO concentration was 1%.
20 μl of each compound solution are then transferred to the assay plate and the Ca2+ kinetic is measured to determine any intrinsic compound activity. After 5 mM incubation in the FLIPR device, the second stimulation with 20 μl of glutamate in Ringer solution (glutamate concentration adjusted to approximately 5% basal stimulation of the maximal possible glutamate effect) is added and the kinetic Ca2+ response of the wells was measured for the modulation effect.
The peak height of the Ca release related fluorescence signal (9-66) is used for the EC50. The EC50 of the modulation is calculated over a nonlinear regression with GraphPad Prism (Table 1).
For the molecule `O=C(Cn1cc(-c2ccccc2)nc1-c1ccccc1)N1CCN(c2ncccn2)CC1` [Example 7.01.01., 2-(2,4-Diphenyl-imidazol-1-yl)-1-(4-pyrimidin-2-yl-piperazin-1-yl)-ethanone], the EC50 (in general, the concentration giving half of the maximal effect) came out at 1290 nM. With `COc1ccnc(N2CCN(C(=O)Cn3cc(-c4ccc(F)c(C)c4)nc3-c3ccccc3)CC2)c1` [Example 7.01.02.] the figure was 84 nM; with `Cc1cc(-c2cn(CC(=O)N3CCN(c4ncccn4)CC3)c(-c3ccccc3)n2)ccc1F` [Example 7.01.03.], 41 nM. With `Cc1cc(-c2cn(CC(=O)N3CCN(c4cccnn4)CC3)c(-c3ccccc3)n2)ccc1F` [Example 7.01.04.] the figure was 363 nM; with `COc1cc(N2CCN(C(=O)Cn3cc(-c4ccc(F)c(C)c4)nc3-c3ccccc3)CC2)ncn1` [Example 7.01.05.], 159 nM. With `Cc1cc(-c2cn(CC(=O)N3CCN(c4ccccn4)CC3)c(-c3ccccc3)n2)ccc1F` [Example 7.01.06.] the figure was 76 nM; with `COc1cnc(N2CCN(C(=O)Cn3cc(-c4ccc(F)c(C)c4)nc3-c3ccccc3)CC2)nc1` [Example 7.01.07.], 53 nM; with `Cc1cc(-c2cn(CC(=O)N3CCN(c4ncc(F)cn4)CC3)c(-c3ccccc3)n2)ccc1F` [Example 7.01.08.], 97 nM.

Turning to `COc1cc(N2CCN(C(=O)Cn3cc(-c4ccc(F)c(C)c4)nc3C3CCCCC3)CC2)ncn1` [Example 7.01.09.], the EC50 is 1320 nM. For `COc1ccnc(N2CCN(C(=O)Cn3cc(-c4ccc(F)c(C)c4)nc3C3CCCCC3)CC2)c1` [Example 7.01.10.], the EC50 was determined as 737 nM. As for `Cc1cc(-c2cn(CC(=O)N3CCN(c4ccccn4)CC3)c(C3CCCCC3)n2)ccc1F` [Example 7.01.11.], the EC50 amounted to 710 nM.

`Cc1cc(-c2cn(CC(=O)N3CCN(c4ncccn4)CC3)c(C3CCCCC3)n2)ccc1F` [Example 7.01.12.]: the EC50 turned out to be 458 nM. With `Cc1cc(-c2cn(CC(=O)N3CCN(c4ncnc5[nH]cnc45)CC3)c(C3CCCCC3)n2)ccc1F` [Example 7.01.13.] the figure was 857 nM; with `COc1ccnc(N2CCN(C(=O)Cn3cc(-c4ccc(F)cc4)nc3-c3ccccc3)CC2)c1` [Example 7.01.14.], 306 nM; with `O=C(Cn1cc(-c2ccc(F)cc2)nc1-c1ccccc1)N1CCN(c2ncnc3[nH]cnc23)CC1` [Example 7.01.15.], 858 nM. For `COc1cc(N2CCN(C(=O)Cn3cc(-c4ccc(F)cc4)nc3-c3ccccc3)CC2)ncn1` [Example 7.01.16.], the EC50 was determined as 877 nM. As for `O=C(Cn1cc(-c2ccc(F)cc2)nc1-c1ccccc1)N1CCN(c2ccccn2)CC1` [Example 7.01.17.], the EC50 came to 542 nM. With `COc1cc(N2CCN(C(=O)Cn3cc(-c4ccc(F)c(C)c4)nc3-c3ccc(F)cc3)CC2)ncn1` [Example 7.01.18.] the figure was 99 nM; with `Cc1cc(-c2cn(CC(=O)N3CCN(c4ncccn4)CC3)c(-c3ccc(F)cc3)n2)ccc1F` [Example 7.01.19.], 31 nM; with `Cc1cc(-c2cn(CC(=O)N3CCN(c4ncnc5[nH]cnc45)CC3)c(-c3ccc(F)cc3)n2)ccc1F` [Example 7.01.20.], 73 nM.

With `Cc1cc(-c2cn(CC(=O)N3CCN(c4cccnn4)CC3)c(-c3ccc(F)cc3)n2)ccc1F` [Example 7.01.22.], the EC50 turned out to be 144 nM. With `COc1ccnc(N2CCN(C(=O)Cn3cc(-c4ccc(F)c(C)c4)nc3-c3ccc(F)cc3)CC2)c1` [Example 7.01.23.] the figure was 75 nM; with `Cc1cc(-c2cn(CC(=O)N3CCN(c4ncncn4)CC3)c(-c3ccc(F)cc3)n2)ccc1F` [Example 7.01.24.], 147 nM; with `COc1cnc(N2CCN(C(=O)Cn3cc(-c4ccc(F)c(C)c4)nc3-c3ccc(F)cc3)CC2)nc1` [Example 7.01.25.], 69 nM. With `Cc1cc(-c2cn(CC(=O)N3CCN(c4ncc(F)cn4)CC3)c(-c3ccc(F)cc3)n2)ccc1F` [Example 7.01.26.] the figure was 83 nM.

With `COc1cc(N2CCN(C(=O)Cn3cc(-c4ccc(F)cc4)nc3-c3ccc(F)cc3)CC2)ncn1` [Example 7.01.27.], the EC50 was found to be 238 nM. With `O=C(Cn1cc(-c2ccc(F)cc2)nc1-c1ccc(F)cc1)N1CCN(c2ncnc3[nH]cnc23)CC1` [Example 7.01.28.] the figure was 262 nM; with `O=C(Cn1cc(-c2ccc(F)cc2)nc1-c1ccc(F)cc1)N1CCN(c2cccnn2)CC1` [Example 7.01.29.], 889 nM. With `COc1ccnc(N2CCN(C(=O)Cn3cc(-c4ccc(F)cc4)nc3-c3ccc(F)cc3)CC2)c1` [Example 7.01.30.], the half-maximal effective concentration (EC50) came to 168 nM. With `O=C(Cn1cc(-c2ccc(F)cc2)nc1-c1ccc(F)cc1)N1CCN(c2ccccn2)CC1` [Example 7.01.31.] the figure was 244 nM; with `Cc1cccc(-c2cn(CC(=O)N3CCN(c4ncnc5[nH]cnc45)CC3)c(-c3ccccc3)n2)c1` [Example 7.01.32.], 131 nM; with `COc1ccnc(N2CCN(C(=O)Cn3cc(-c4cccc(C)c4)nc3-c3ccccc3)CC2)c1` [Example 7.01.33.], 148 nM. For the molecule `Cc1cccc(-c2cn(CC(=O)N3CCN(c4cccnn4)CC3)c(-c3ccccc3)n2)c1` [Example 7.01.34.], the EC50 is 858 nM. On to `Cc1cccc(-c2cn(CC(=O)N3CCN(c4ccccn4)CC3)c(-c3ccccc3)n2)c1` [Example 7.01.35.], for which the EC50 was 73 nM. With `COc1cc(N2CCN(C(=O)Cn3cc(-c4cccc(C)c4)nc3-c3ccccc3)CC2)ncn1` [Example 7.01.36.] the figure was 196 nM. As for `COc1ccc(-c2cn(CC(=O)N3CCN(c4ccccn4)CC3)c(-c3ccccc3)n2)cc1` [Example 7.02.01., 2-[4-(4-Methoxy-phenyl)-2-phenyl-imidazol-1-yl]-1-(4-pyridin-2-yl-piperazin-1-yl)-ethanone], the EC50 was 464 nM. With `Cc1ccc(-c2nc(-c3ccccc3)cn2CC(=O)N2CCN(c3ccccn3)CC2)cc1` [Example 7.02.02.] the figure was 1640 nM; with `O=C(Cn1cc(-c2ccc(F)cc2)nc1-c1ccccc1)N1CCN(c2ncccn2)CC1` [Example 7.03.01., 2-[4-(4-Fluoro-phenyl)-2-phenyl-imidazol-1-yl]-1-(4-pyrimidin-2-yl-piperazin-1-yl)-ethanone], 272 nM. With `Cc1ccc(-c2cn(CC(=O)N3CCN(c4ncccn4)CC3)c(-c3ccccc3)n2)cc1` [Example 7.03.02.] the figure was 67 nM; with `Cc1cc(-c2cn(CC(=O)N3CCN(c4ncccn4)CC3)c(-c3ccccc3)n2)ccc1Cl` [Example 7.03.03.], 54 nM; with `O=C(Cn1cc(-c2cccc(F)c2)nc1-c1ccccc1)N1CCN(c2ncccn2)CC1` [Example 7.03.04.], 395 nM. With `O=C(Cn1cc(-c2ccc(F)c(Cl)c2)nc1-c1ccccc1)N1CCN(c2ncccn2)CC1` [Example 7.03.05.] the figure was 87 nM. Consider `CCOc1ccc(-c2cn(CC(=O)N3CCN(c4ncccn4)CC3)c(-c3ccccc3)n2)cc1` [Example 7.03.06.], for which the EC50 worked out at 680 nM. With `Cc1cc(-c2cn(CC(=O)N3CCN(c4ncccn4)CC3)c(-c3ccccc3)n2)cc(C)c1F` [Example 7.03.07.] the figure was 38 nM; with `CCOc1cccc(-c2cn(CC(=O)N3CCN(c4ncccn4)CC3)c(-c3ccccc3)n2)c1` [Example 7.03.08.], 151 nM.
